Measurements taken from the NIST ThermoML archive (doi:10.1021/je900511c).

Settings: Liquid, Closed cell (Static) method

CCO[Si](C)(Cl)Cl [dichloroethoxymethylsilane]
Settings	vapor or sublimation pressure [kPa]
312.94 K	11.32
318.43 K	14.32
323.01 K	17.32
326.93 K	20.32
330.24 K	23.32
333.29 K	26.32
336.2 K	29.32
338.84 K	32.33
341.28 K	35.33
343.57 K	38.33
345.66 K	41.33
347.54 K	44.33
349.48 K	47.33
351.36 K	50.33
353.04 K	53.33
354.72 K	56.33
356.25 K	59.33
357.82 K	62.33
359.25 K	65.33
360.57 K	68.33
361.95 K	71.33
363.22 K	74.33
364.59 K	77.33
365.87 K	80.33
366.98 K	83.33
368.21 K	86.33
369.38 K	89.33
370.5 K	92.33
371.51 K	95.33
372.58 K	98.33
373.6 K	101.27
